The record followed here is ChEMBL document CHEMBL1151745, “Identification of potent, selective, and metabolically stable peptide antagonists to the calcitonin gene-related peptide (CGRP) receptor” (J Med Chem, 2008).

Molecules are shown by their SMILES. Calls of active or inactive are those of the source. No cut-off for these calls is given here. Where a SMILES comes first, the peptide text is derived from it. [ ]: non-standard residue; d: D form. Igl = N[C@H](C(=O)O)C1Cc2ccccc2C1; hArg = N=C(N)NCCCC[C@H](N)C(=O)O; Tic = O=C(O)[C@@H]1Cc2ccccc2CN1; Cit = NC(=O)NCCC[C@H](N)C(=O)O

For this test, the target named is Calcitonin gene-related peptide type 1 receptor (Homo sapiens) (UniProt Q16602). Briefly: Agonist activity at human CGRP1 receptor in human SK-N-MC cells.
Calcitonin gene-related peptide type 1 receptor (Homo sapiens), sequence (Q16602 whole entry, looked up): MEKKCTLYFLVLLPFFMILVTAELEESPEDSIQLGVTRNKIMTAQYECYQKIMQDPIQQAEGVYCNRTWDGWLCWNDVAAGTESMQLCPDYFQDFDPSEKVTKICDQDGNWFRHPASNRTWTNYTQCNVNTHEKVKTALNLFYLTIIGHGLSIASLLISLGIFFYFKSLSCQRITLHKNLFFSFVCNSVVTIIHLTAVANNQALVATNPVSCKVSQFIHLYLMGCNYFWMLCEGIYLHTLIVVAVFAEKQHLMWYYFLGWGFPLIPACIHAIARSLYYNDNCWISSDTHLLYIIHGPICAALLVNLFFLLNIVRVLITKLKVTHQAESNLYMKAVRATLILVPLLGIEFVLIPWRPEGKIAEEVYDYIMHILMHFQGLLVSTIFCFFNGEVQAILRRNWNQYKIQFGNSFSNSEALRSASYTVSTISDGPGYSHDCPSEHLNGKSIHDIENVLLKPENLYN
As to `CC(=O)N[C@@H](Cc1c[nH]c2ccccc12)C(=O)N[C@H](C(=O)N[C@H](C(=O)N[C@@H](Cc1cnc[nH]1)C(=O)N[C@@H](CCCNC(N)=O)C(=O)N[C@@H](CC(C)C)C(=O)N[C@@H](C)C(=O)NCC(=O)N[C@@H](CC(C)C)C(=O)N[C@@H](CC(C)C)C(=O)N[C@@H](CO)C(=O)N[C@@H](CCCNC(N)=O)C(=O)N[C@@H](CO)C(=O)NCC(=O)NCC(=O)N[C@H](C(=O)N[C@H](C(=O)N[C@@H](CCCCNC(=N)N)C(=O)N[C@@H](CCCCN)C(=O)N[C@@H](CC(N)=O)C(=O)N[C@@H](Cc1ccccc1)C(=O)N[C@H](C(=O)N1CCC[C@H]1C(=O)N[C@H](C(=O)N[C@@H](CC(=O)O)C(=O)N[C@H](C(=O)NCC(=O)N1CCC[C@@H]1C(=O)N[C@@H](Cc1ccccc1)C(=O)N[C@@H](C)C(=O)N[C@@H](Cc1ccccc1)C(N)=O)C(C)C)[C@@H](C)O)C(C)C)C(C)C)C(C)C)[C@@H](C)O)C(C)C`, the outcome was inactive.

Regarding `CC(=O)N[C@H](C(=O)N[C@H](C(=O)N[C@@H](Cc1cnc[nH]1)C(=O)N[C@@H](CCCNC(=N)N)C(=O)N[C@@H](CC(C)C)C(=O)N[C@@H](C)C(=O)NCC(=O)N[C@@H](CC(C)C)C(=O)N[C@@H](CC(C)C)C(=O)N[C@@H](CO)C(=O)N[C@@H](CCCNC(=N)N)C(=O)N[C@@H](CO)C(=O)NCC(=O)NCC(=O)N[C@H](C(=O)N[C@H](C(=O)N[C@@H](CCCNC(=N)N)C(=O)N[C@@H](CCCCN)C(=O)N[C@@H](CC(N)=O)C(=O)N[C@@H](Cc1ccccc1)C(=O)N[C@H](C(=O)N1CCC[C@H]1C(=O)N[C@H](C(=O)N[C@@H](CC(=O)O)C(=O)N[C@H](C(=O)NCC(=O)N1CCC[C@H]1C(=O)N[C@@H](Cc1ccccc1)C(=O)N[C@@H](C)C(=O)N[C@@H](Cc1ccccc1)C(N)=O)C(C)C)[C@@H](C)O)C(C)C)C(C)C)C(C)C)[C@@H](C)O)C(C)C` (Ac-VTHRLAGLLSRSGGVVRKNFVPTDVGPFAF-NH2), the outcome was inactive.

Take `CC(=O)N[C@@H](Cc1c[nH]c2ccccc12)C(=O)N[C@H](C(=O)N[C@H](C(=O)N[C@@H](Cc1cnc[nH]1)C(=O)N[C@@H](CCCNC(N)=O)C(=O)N[C@@H](CC(C)C)C(=O)N[C@@H](C)C(=O)NCC(=O)N[C@@H](CC(C)C)C(=O)N[C@@H](CC(C)C)C(=O)N[C@@H](CO)C(=O)N[C@@H](CCCNC(N)=O)C(=O)N[C@@H](CO)C(=O)NCC(=O)NCC(=O)N[C@H](C(=O)N[C@H](C(=O)N[C@@H](CCCCNC(=N)N)C(=O)N[C@@H](CCCCN)C(=O)N[C@@H](CC(N)=O)C(=O)N[C@@H](Cc1ccccc1)C(=O)N[C@H](C(=O)N1CCC[C@H]1C(=O)N[C@H](C(=O)N[C@@H](CC(=O)O)C(=O)N[C@H](C(=O)NCC(=O)NC1(C(=O)N[C@@H](Cc2ccccc2)C(=O)N[C@@H](C)C(=O)N[C@@H](Cc2ccccc2)C(N)=O)CCNCC1)C(C)C)[C@@H](C)O)C(C)C)C(C)C)C(C)C)[C@@H](C)O)C(C)C`: the outcome was inactive.

As for `CC(=O)N[C@@H](Cc1c[nH]c2ccccc12)C(=O)N[C@H](C(=O)N[C@H](C(=O)N[C@@H](Cc1cnc[nH]1)C(=O)N[C@@H](CCCNC(N)=O)C(=O)N[C@@H](CC(C)C)C(=O)N[C@@H](C)C(=O)NCC(=O)N[C@@H](CC(C)C)C(=O)N[C@@H](CC(C)C)C(=O)N[C@@H](CO)C(=O)N[C@@H](CCCNC(N)=O)C(=O)N[C@@H](CO)C(=O)NCC(=O)NCC(=O)N[C@H](C(=O)N[C@H](C(=O)N[C@@H](CCCCNC(=N)N)C(=O)N[C@@H](CCCCN)C(=O)N[C@@H](CC(N)=O)C(=O)N[C@@H](Cc1ccccc1)C(=O)N[C@H](C(=O)N1CCC[C@H]1C(=O)N[C@H](C(=O)N[C@@H](CC(=O)O)C(=O)N[C@H](C(=O)NCC(=O)NC(C)(C)C(=O)N[C@@H](Cc1ccccc1)C(=O)N[C@@H](C)C(=O)N[C@@H](Cc1ccccc1)C(N)=O)C(C)C)[C@@H](C)O)C(C)C)C(C)C)C(C)C)[C@@H](C)O)C(C)C`, the result was inactive.

On to `CC(=O)N[C@@H](Cc1c[nH]c2ccccc12)C(=O)N[C@H](C(=O)N[C@H](C(=O)N[C@@H](Cc1cnc[nH]1)C(=O)N[C@@H](CCCNC(N)=O)C(=O)N[C@@H](CC(C)C)C(=O)N[C@@H](C)C(=O)NCC(=O)N[C@@H](CC(C)C)C(=O)N[C@@H](CC(C)C)C(=O)N[C@@H](CO)C(=O)N[C@@H](CCCNC(N)=O)C(=O)N[C@@H](CO)C(=O)NCC(=O)NCC(=O)N[C@H](C(=O)N[C@H](C(=O)N[C@@H](CCCCNC(=N)N)C(=O)N[C@@H](CCCCN)C(=O)N[C@@H](CC(N)=O)C(=O)N[C@@H](Cc1ccccc1)C(=O)N[C@H](C(=O)N1CCC[C@H]1C(=O)N[C@H](C(=O)N[C@@H](CC(=O)O)C(=O)N[C@H](C(=O)NCC(=O)N1CCC[C@H]1C(=O)N[C@H](C(=O)N[C@@H](C)C(=O)N[C@@H](Cc1ccccc1)C(N)=O)C1Cc2ccccc2C1)C(C)C)[C@@H](C)O)C(C)C)C(C)C)C(C)C)[C@@H](C)O)C(C)C` (Ac-WVTH[Cit]LAGLLS[Cit]SGGVV[hArg]KNFVPTDVGP[Igl]AF-NH2), for which the result was inactive.

`CC(=O)N[C@@H](Cc1c[nH]c2ccccc12)C(=O)N[C@H](C(=O)N[C@H](C(=O)N[C@@H](Cc1cnc[nH]1)C(=O)N[C@@H](CCCNC(N)=O)C(=O)N[C@@H](CC(C)C)C(=O)N[C@@H](C)C(=O)NCC(=O)N[C@@H](CC(C)C)C(=O)N[C@@H](CC(C)C)C(=O)N[C@@H](CO)C(=O)N[C@@H](CCCNC(N)=O)C(=O)N[C@@H](CO)C(=O)NCC(=O)NCC(=O)N[C@H](C(=O)N[C@H](C(=O)N[C@@H](CCCCNC(=N)N)C(=O)N[C@@H](CCCCN)C(=O)N[C@@H](CC(N)=O)C(=O)N[C@@H](Cc1ccccc1)C(=O)N[C@H](C(=O)N1CCC[C@H]1C(=O)N[C@H](C(=O)N[C@@H](CC(=O)O)C(=O)N[C@H](C(=O)NCC(=O)N1CCC[C@H]1C(=O)N1Cc2ccccc2C[C@H]1C(=O)N[C@@H](C)C(=O)N[C@@H](Cc1ccccc1)C(N)=O)C(C)C)[C@@H](C)O)C(C)C)C(C)C)C(C)C)[C@@H](C)O)C(C)C` (Ac-WVTH[Cit]LAGLLS[Cit]SGGVV[hArg]KNFVPTDVGP[Tic]AF-NH2): the result was inactive.

For `CC(=O)N[C@@H](Cc1c[nH]c2ccccc12)C(=O)N[C@H](C(=O)N[C@H](C(=O)N[C@@H](Cc1cnc[nH]1)C(=O)N[C@@H](CCCNC(N)=O)C(=O)N[C@@H](CC(C)C)C(=O)N[C@@H](C)C(=O)NCC(=O)N[C@@H](CC(C)C)C(=O)N[C@@H](CC(C)C)C(=O)N[C@@H](CO)C(=O)N[C@@H](CCCNC(N)=O)C(=O)N[C@@H](CO)C(=O)NCC(=O)NCC(=O)N[C@H](C(=O)N[C@H](C(=O)N[C@@H](CCCCNC(=N)N)C(=O)N[C@@H](CCCCN)C(=O)N[C@@H](CC(N)=O)C(=O)N[C@@H](Cc1ccccc1)C(=O)N[C@H](C(=O)N1C(C(=O)N[C@H](C(=O)N[C@@H](CC(=O)O)C(=O)N[C@H](C(=O)NCC(=O)N2C3CCCCC3C[C@H]2C(=O)N[C@@H](Cc2ccccc2)C(=O)N[C@@H](C)C(=O)N[C@@H](Cc2ccccc2)C(N)=O)C(C)C)[C@@H](C)O)CC2CCCCC21)C(C)C)C(C)C)C(C)C)[C@@H](C)O)C(C)C` (some centres not stated), the outcome was inactive.
